According to paper PMC11882969 (Nature Communications, 2025):
Where “and” joins values, the source holds several entries; their conditions need not be identical. Identical values can stand only once. Like-named read-outs stand apart in the source and are kept apart here.

Legend:
hCB1 [1] = molecular target: T1, hCB1 (Homo sapiens, UniProt P21554); experiment: bioSensAll ebBRET signaling profiling, hCB1; assay type: cell-based; set-up: host or cells: HEK293SL cells, transient PEI transfection; conditions: for RE, relative efficacy: vs CP-55,940; for EC50: read-out: EC50 [95% CI]; for Emax: normalized to CP-55,940
hCB1 [2] = molecular target: T1, hCB1; experiment: Lance Ultra cAMP accumulation assay, CHO cells; assay type: cell-based; set-up: expressed in transfected cells; conditions: for normalised cAMP response, concentration-response (Figure2f), replicate values: log[Compound;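 for all read-outs here: human CB1R stably expressed in CHO cells, ligands co-incubated with forskolin at room temperature, read-out is lowering of forskolin-stimulated cAMP accumulation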
Experimental: The inhibition of forskolin-stimulated cAMP accumulation assays was carried out using PerkinElmer’s Lance Ultra cAMP kit following the manufacturer’s protocol. In brief, CHO cells stably expressing human CB1R (provided by the lab of Laura Bohn) were harvested by incubation with Versene (ThermoFisher Scientific, Waltham, MA) for 10 min, washed once with Hank’s Balanced Salt Solution, and resuspended in stimulation buffer at ~200 cells/μL density. The ligands at eight different concentrations (0.001-10,000 nM) in stimulation buffer (5 μL) containing forskolin (2 μM final concentration) were added to a 384-well plate followed by the cell suspension (5 μL; ~1000 cells/well). The plate was incubated for 30 min at room temperature. Eu-cAMP tracer (5 μL) and Ulight-anti-cAMP (5 μL) working solutions were then added to each well, and the plate was incubated at room temperature for an additional 60 min. Results were measured on a Perkin-Elmer EnVision plate reader. The EC50 values were determined by nonlinear regression analysis using Graphpad Prism 9 and are expressed as the mean of three experiments, each performed in triplicate.

CB1 (rCB1) = CB1 (rCB1) (Rattus norvegicus, UniProt P20272); experiment: Radioligand competition binding, [3H]-CP-55,940, rat brain membranes; conditions: for radioligand binding, competition curve point (normalized): log[drug], replicate columns
Chain of CB1 (rCB1) (P20272 whole entry): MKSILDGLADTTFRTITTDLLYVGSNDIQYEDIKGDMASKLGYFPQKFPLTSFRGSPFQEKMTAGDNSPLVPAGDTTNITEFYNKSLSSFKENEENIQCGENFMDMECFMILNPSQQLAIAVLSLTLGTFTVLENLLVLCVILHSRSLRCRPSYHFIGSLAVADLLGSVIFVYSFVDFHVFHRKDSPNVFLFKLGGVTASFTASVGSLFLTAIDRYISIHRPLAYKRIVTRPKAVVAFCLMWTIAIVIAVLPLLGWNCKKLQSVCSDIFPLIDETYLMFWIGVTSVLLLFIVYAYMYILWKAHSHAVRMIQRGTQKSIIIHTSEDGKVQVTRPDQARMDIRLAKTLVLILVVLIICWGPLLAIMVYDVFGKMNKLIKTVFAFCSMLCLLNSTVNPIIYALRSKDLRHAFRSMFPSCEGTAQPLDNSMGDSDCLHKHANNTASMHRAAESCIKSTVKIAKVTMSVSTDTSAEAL

T1 sequence (P21554 whole entry): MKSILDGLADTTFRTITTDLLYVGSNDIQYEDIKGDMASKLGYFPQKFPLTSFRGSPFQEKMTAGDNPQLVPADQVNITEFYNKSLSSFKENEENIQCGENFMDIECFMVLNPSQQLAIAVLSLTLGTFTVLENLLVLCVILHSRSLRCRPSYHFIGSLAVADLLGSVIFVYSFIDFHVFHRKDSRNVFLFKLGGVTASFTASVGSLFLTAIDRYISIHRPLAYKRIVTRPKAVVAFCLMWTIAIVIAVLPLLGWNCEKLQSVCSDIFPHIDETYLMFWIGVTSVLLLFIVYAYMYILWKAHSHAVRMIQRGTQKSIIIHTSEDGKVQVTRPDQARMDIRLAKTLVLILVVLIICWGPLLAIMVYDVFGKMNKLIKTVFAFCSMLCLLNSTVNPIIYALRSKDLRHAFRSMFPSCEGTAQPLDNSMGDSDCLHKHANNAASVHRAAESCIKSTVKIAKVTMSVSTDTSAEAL

COC(=O)[C@@](C)(NC(=O)c1cc(C)n(-c2cccc(C(F)(F)F)c2)n1)c1cccs1 [‘1350]
GoB hCB1 (hCB1 [1]; Log [Compound] (M) -8.39794): 91.7888 and 85.5166 and 90.3229
Gq hCB1 (hCB1 [1]; Log [Compound] (M) -8.39794): 1079
Gs hCB1 (hCB1 [1]; Log [Compound] (M) -8.39794): 6774
Gz hCB1 (hCB1 [1]; Log [Compound] (M) -8.39794): 90.3591 and 90.0229
G13 hCB1 (hCB1 [1]; Log [Compound] (M) -8.68787): 53.1584 and 35.4081
G15 hCB1 (hCB1 [1]; Log [Compound] (M) -8.68787): 102.996 and 87.3488
Gi1 hCB1 (hCB1 [1]; Log [Compound] (M) -8.68787): 91.5518 and 80.8983 and 96.1797
Gi2 hCB1 (hCB1 [1]; Log [Compound] (M) -8.68787): 100.616 and 73.0934
GoB hCB1 (hCB1 [1]; Log [Compound] (M) -8.68787): 87.9026 and 94.3015 and 102.463
Gq hCB1 (hCB1 [1]; Log [Compound] (M) -8.68787): 1093
Gs hCB1 (hCB1 [1]; Log [Compound] (M) -8.68787): 6188
Gz hCB1 (hCB1 [1]; Log [Compound] (M) -8.68787): 71.525 and 105.899
G13 hCB1 (hCB1 [1]; Log [Compound] (M) -9.15521): 29.8642 and 17.8839
G15 hCB1 (hCB1 [1]; Log [Compound] (M) -9.15521): 73.5984 and 77.2225
Gi1 hCB1 (hCB1 [1]; Log [Compound] (M) -9.15521): 81.1718 and 69.1157 and 80.6507
Gi2 hCB1 (hCB1 [1]; Log [Compound] (M) -9.15521): 77.4138 and 61.2639
GoB hCB1 (hCB1 [1]; Log [Compound] (M) -9.15521): 71.2656 and 63.2418 and 86.0488
Gq hCB1 (hCB1 [1]; Log [Compound] (M) -9.15521): 979
Gs hCB1 (hCB1 [1]; Log [Compound] (M) -9.15521): 6053
Gz hCB1 (hCB1 [1]; Log [Compound] (M) -9.15521): 50.0303 and 83.0974
G15 hCB1 (hCB1 [1]; Log [Compound] (M) -9.61989): 46.4936 and 49.8683
Gi1 hCB1 (hCB1 [1]; Log [Compound] (M) -9.61989): 46.5026 and 32.8966 and 52.9951
Gi2 hCB1 (hCB1 [1]; Log [Compound] (M) -9.61989): 46.1296 and 39.0463
GoB hCB1 (hCB1 [1]; Log [Compound] (M) -9.61989): 41.2683 and 36.2447 and 42.156
Gq hCB1 (hCB1 [1]; Log [Compound] (M) -9.61989): 993
Gs hCB1 (hCB1 [1]; Log [Compound] (M) -9.61989): 6331
G15 hCB1 (hCB1 [1]; Log [Compound] (M) -10.0969): 22.2784 and 20.2785
Gi2 hCB1 (hCB1 [1]; Log [Compound] (M) -10.0969): 20.3201 and 12.6408
GoB hCB1 (hCB1 [1]; Log [Compound] (M) -10.0969): 15.6017 and 12.0427 and 18.9365
Gq hCB1 (hCB1 [1]; Log [Compound] (M) -10.0969): 1040
Gs hCB1 (hCB1 [1]; Log [Compound] (M) -10.0969): 6351
G15 hCB1 (hCB1 [1]; Log [Compound] (M) -10.5529): 10.1469 and 8.811
Gq hCB1 (hCB1 [1]; Log [Compound] (M) -10.5529): 1032
Gs hCB1 (hCB1 [1]; Log [Compound] (M) -10.5529): 6578
Gq hCB1 (hCB1 [1]; Log [Compound] (M) -11.0177): 1054
Gs hCB1 (hCB1 [1]; Log [Compound] (M) -11.0177): 6308
Gq hCB1 (hCB1 [1]; Log [Compound] (M) -11.4949): 1050
Gs hCB1 (hCB1 [1]; Log [Compound] (M) -11.4949): 6446
Gq hCB1 (hCB1 [1]; Log [Compound] (M) -11.9208): 1129
Gs hCB1 (hCB1 [1]; Log [Compound] (M) -11.9208): 6648
Gq hCB1 (hCB1 [1]; Log [Compound] (M) -12.3979): 1059
Gs hCB1 (hCB1 [1]; Log [Compound] (M) -12.3979): 6648
Gq hCB1 (hCB1 [1]; Log [Compound] (M) -12.8861): 1070
Gs hCB1 (hCB1 [1]; Log [Compound] (M) -12.8861): 6918
pEC50 [95% CI] (hCB1 [1]; hCB1 G13): 9.08 [8.6 – 9.6]
RE, relative efficacy (hCB1 [1]; hCB1 G13): 1.64
RE, relative efficacy (hCB1 [1]; hCB1 G15): 1.14
pEC50 [95% CI] (hCB1 [1]; hCB1 Gi1): 9.63 [9.5 – 9.7]
RE, relative efficacy (hCB1 [1]; hCB1 Gi1): 1.98
RE, relative efficacy (hCB1 [1]; hCB1 Gi2): 1.89
RE, relative efficacy (hCB1 [1]; hCB1 GoB): 2.24
RE, relative efficacy (hCB1 [1]; hCB1 Gz): 0.77
RE, relative efficacy (hCB1 [1]; hCB1 ßarr2+GRK2): 1.16
EC50 (hCB1 [1]; hCB1 Barr2 + GRK2): 2.2 nM
EC50 (hCB1 [1]; hCB1 G13): 0.83 nM
EC50 (hCB1 [1]; hCB1 G15): 0.22 nM
EC50 (hCB1 [1]; hCB1 Gi1): 0.23 nM
EC50 (hCB1 [1]; hCB1 Gi2): 0.28 nM
EC50 (hCB1 [1]; hCB1 GoB): 0.29 nM
EC50 (hCB1 [1]; hCB1 Gz): 0.35 nM
Emax (hCB1 [1]; read-out: Emax [95% CI], hCB1 Barr2 + GRK2): 63%
Emax (hCB1 [1]; read-out: Emax [95% CI], hCB1 G13): 56%
Emax (hCB1 [1]; read-out: Emax [95% CI], hCB1 G15): 99%
Emax (hCB1 [1]; read-out: Emax [95% CI], hCB1 Gi1): 92%
Emax (hCB1 [1]; read-out: Emax [95% CI], hCB1 Gi2): 95%
Emax (hCB1 [1]; read-out: Emax [95% CI], hCB1 GoB): 98%
Emax (hCB1 [1]; read-out: Emax [95% CI], hCB1 Gz): 94%
Lance Ultra cAMP pEC50 (hCB1 [2]): 8.8 [8.4 – 9.2]
Emax (hCB1 [2]; CHO): 77%
agonism, inhibition of forskolin-stimulated cAMP (hCB1 [2]; hCB1-expressing cells, in words): agonists
normalised cAMP response, concentration-response (Figure2f), replicate values (hCB1 [2]; M] -5): -4.858 and 11.635 and 22.5761 and 22.3192 and 16.0513
normalised cAMP response, concentration-response (Figure2f), replicate values (hCB1 [2]; M] -6): 0.02957 and 13.0032 and 24.8348 and 23.4809 and 19.7873
normalised cAMP response, concentration-response (Figure2f), replicate values (hCB1 [2]; M] -7): -1.176 and 11.2775 and 31.1162 and 23.9321 and 21.5823
normalised cAMP response, concentration-response (Figure2f), replicate values (hCB1 [2]; M] -8): 4.023 and 6.478 and 36.7172 and 38.802 and 36.5532
normalised cAMP response, concentration-response (Figure2f), replicate values (hCB1 [2]; M] -9): 33.486 and 46.5508 and 80.4827 and 77.993 and 76.9862
normalised cAMP response, concentration-response (Figure2f), replicate values (hCB1 [2]; M] -10): 57.5574 and 85.1374 and 96.2204 and 101.985 and 96.4953
normalised cAMP response, concentration-response (Figure2f), replicate values (hCB1 [2]; M] -11): 67.5707 and 85.3574 and 95.6722 and 97.0187 and 98.6477
normalised cAMP response, concentration-response (Figure2f), replicate values (hCB1 [2]; M] -12): 65.6738 and 93.8429 and 115.239 and 106.805 and 95.2537
LLE (lipophilic ligand efficiency) (CB1 (rCB1); LLE = pIC50 − clogP): 4.7
LE (ligand efficiency) (CB1 (rCB1); from rCB1 affinity): 0.41
pKi [95% CI] (CB1 (rCB1); rCB1): 9.0 [8.9 – 9.1] and 9.02 [8.9 – 9.1]
radioligand binding, competition curve point (normalized) (CB1 (rCB1); rCB1, M = -6.643): -0.744 and -7.487 and -3.298
radioligand binding, competition curve point (normalized) (CB1 (rCB1); rCB1, M = -7.357): -0.8036 and -4.1 and -0.2377
radioligand binding, competition curve point (normalized) (CB1 (rCB1); rCB1, M = -8.07): 10.2232 and 5.66 and 5.585
radioligand binding, competition curve point (normalized) (CB1 (rCB1); rCB1, M = -8.783): 48.7054 and 44.7118 and 50.1783
radioligand binding, competition curve point (normalized) (CB1 (rCB1); rCB1, M = -9.496): 85.9821 and 91.8301 and 85.5615
radioligand binding, competition curve point (normalized) (CB1 (rCB1); rCB1, M = -10.21): 99.5833 and 109.715 and 87.0469
radioligand binding, competition curve point (normalized) (CB1 (rCB1); rCB1, M = -11.923): 90.0893 and 95.7219 and 98.7077
radioligand binding, competition curve point (normalized) (CB1 (rCB1); rCB1, M = -13.636): 93.4375 and 98.1283
fold more potent than CP-55,940 (CB1 (rCB1); rCB1 binding): 3 fold
fold improvement in CB1R affinity (CB1 (rCB1); vs parent hit or analog without the change): ~50 fold
